In paper PMC3006138, “Fexinidazole – A New Oral Nitroimidazole Drug Candidate Entering Clinical Development for the Treatment of Sleeping Sickness” (PLoS Neglected Tropical Diseases, 2010):
Values joined by “and” are separate entries in the source; they are usually repeats but may differ in a detail not shown here. Equal values may be shown once.

Legend:
jejunum or liver = conditions: rat, in vivo; cited from earlier work
colon or liver = conditions: mouse, in vivo; cited from earlier work
Salmonella typhimurium = tested on: Salmonella typhimurium; set-up: method as in ref 58 (Suter et al.); conditions: standard strains, ref 58 (Suter et al.); cited from earlier work
rat liver DNA = conditions: in vivo; cited from earlier work
Caco-2 permeability = conditions: human, Caco-2
Procedure: (§1) Caco-2 [36] or MDR1-MDCK (Madin Darby canine kidney cells transfected with the human multidrug resistance MDR1 gene) cell monolayers were grown to confluence on collagen-coated, microporous, polycarbonate membranes in 12-well microtitre plates. The buffer for the donor chamber was Hanks balanced salt solution with 10 mM HEPES and 15 mM glucose at pH 7.4. The buffer in the receiver chamber contained the same with the addition of 1% bovine serum albumin (BSA). The test article was added at 5 µM in the assay buffer. […] After 2 h, duplicate aliquots were taken from the donor and receiver chambers and assayed via LC/MS. The apparent permeability and recovery were calculated using standard methods.
(§2) The objective of this study was to determine the bi-directional Caco-2 permeability and efflux limited absorption poten tial of thr ee test compoun ds. […]
(§3) 4 . […] Th e test compound dosing concentrations were 5 µM in th e a ssay bu f fer . […] After two hours, a l iquot s wer e t a ken fr om th e r ecei ver an d don or cha m ber s. E a ch det erm ina ti on wa s per for m ed in dupl i cat e. Th e Lucifer Yellow flux was also measur ed for each mon olayer after bein g subjected to th e test compoun ds to en sur e n o damage was in flicted to th e cell mon olayer s durin g th e flux per iod. All samples wer e assayed by LC/MS/MS usin g electrospray ionization. Analytical conditions are outlined in Attachment I. The apparent permeability, Papp, and per cen t r ecover y wer e calculated as follows:
(§4) Papp = (dCr /dt) x Vr/(AxC) (1)
(§5) P er cen t Rec o ver y = 1 0 0 x ( ( V r x C rfi n a l ) + (Vd x Cd fi n a l ))/(Vd x C N) (2) […]
(§6) dCr /dt is th e slope of th e cumulative con cen tration in th e r eceiver compartment ver sus time in µM s -1. […]

human MDR1 = test: MDR1-MDCK permeability; conditions: dog, MDCK-MDR1
Procedure: as §1
(§7) The objective of this study was to determine the bi-directional MDR1-MDCK permeability and efflux limited absor ption potential of thr ee test compounds. […]
(§8) 4. Th e buff er in th e r ecei ver cha m ber a l so con t a in ed 1% Bovi n e Ser um Al bumin ( BSA) . Th e test compound dosing concentrations were 5 µM in th e a ssay bu f fer . […] After two hours, a l iquot s wer e t a ken fr om th e r ecei ver an d don or cha m ber s. E a ch det erm ina ti on wa s per for m ed in dupl i cat e. Th e Lucifer Yellow flux was also measur ed for each mon olayer after bein g subjected to th e test compoun ds to en sur e n o damage was in flicted to th e cell mon olayer s durin g th e flux per iod. All samples wer e assayed by LC/MS/MS usin g electrospray ionization. Analytical conditions are outlined in Attachment I. The apparent permeability, Papp, and per cen t r ecover y wer e calculated as follows: […]
as §6

[1] = tested on: MDR1 (human, transfected); test: MDR1-MDCK permeability; conditions: dog, MDCK-MDR1
Procedure: as §1, §7, §8, §6

T. b. brucei GVR35 [2] = test: Chronic (stage 2) infection mouse model; format: in vivo; conditions: 40 mg/kg×1 ip, day 21
[3] = tested on: T. b. gambiense (STIB 930); test: In vitro trypanocidal assay (Alamar Blue); format: cell-based, Trypanosoma brucei gambiense; conditions: Trypanosoma brucei, 72 h
Procedure: Parasites were cultured with or without the test article at a concentration of 3×10^4/mL in Minimal Essential Medium, according to Baltz et al., with the following modifications: 0.2 mM 2-mercaptoethanol, 1 mM Na-pyruvate, 0.5 mM hypoxanthine and 15% heat inactivated horse serum at 37°C in 5% CO2 in 96-well microtitre plates for 72 h. 10 µL of Alamar Blue was added for the final 3 h to determine viability. The assay was assessed by reading the fluorescence in each well at an excitation wavelength of 536 nm and at an emission wavelength of 588 nm. The IC50 values were calculated from the sigmoidal inhibition curves. For cytotoxicity, 4×10^4/mL L-6 rat skeletal myoblast cells were used, and incubations and assessments carried out as above.

T. b. brucei GVR35 [4] = test: Chronic (stage 2) infection mouse model; format: in vivo
Procedure: (§9) Female NMRI mice were infected via intraperitoneal injection with bloodstream forms of T. b. rhodesiense STIB900 or T. b. gambiense 130R and treated with test drugs daily for 4 consecutive days, starting on day 3 or 7 after infection, respectively, or with bloodstream forms of T. b brucei GVR35 and treated daily from day 21 after infection for 5 days. Parasitemia was evaluated by tail blood examination and surviving, aparasitaemic mice at 60, 90, or 180 days, respectively, were considered cured.

[5] = tested on: T. b. rhodesiense (STIB 900); test: In vitro trypanocidal assay (Alamar Blue); format: cell-based, Trypanosoma brucei rhodesiense; conditions: Trypanosoma brucei, 72 h
Procedure: (§10) 10 µL of Alamar Blue was added for the final 3 h to determine viability. […] The IC50 values were calculated from the sigmoidal inhibition curves. For cytotoxicity, 4×10^4/mL L-6 rat skeletal myoblast cells were used, and incubations and assessments carried out as above.

[6] = stage 2 HAT patients; cited from earlier work
L-6 rat myoblast cells = test: Cytotoxicity assay; format: cell-based; conditions: 72 h
Procedure: as §10

T. b. gambiense 130R = test: Acute infection mouse model; format: in vivo; conditions: 4 mg/kg×4 days ip
Procedure: as §9

Caco-2 cell monolayers = test: in vitro; conditions: Caco-2
Procedure: as §1, §2, §3, §4, §5, §6

[7] = tested on: MDR1-MDCK cell monolayers; test: MDR1-MDCK permeability; conditions: plate certification
Procedure: as §1, §7, §8, §6

[8] = 15 mg/kg×5 days ip, separate experiment

## O=c1[nH]c2cc([N+](=O)[O-])cc(CNCP(=O)(O)O)c2[nH]c1=O [AMP397]
Jejunum or liver
  genetic damage in jejunum or liver: did not detect any genetic damage
Colon or liver
  mutagenicity in colon or liver: No evidence of mutagenicity
Salmonella typhimurium
  bacterial mutagenicity: positive Ames test results
Rat liver DNA
  DNA binding in rat liver: failed to show any DNA binding

## C[C@H]1O[C@@H](O[C@H]2[C@@H](O)C[C@H](O[C@H]3[C@@H](O)C[C@H](O[C@H]4CC[C@@]5(C)[C@H](CC[C@@H]6[C@@H]5C[C@@H](O)[C@]5(C)[C@@H](C7=CC(=O)OC7)CC[C@]65O)C4)O[C@@H]3C)O[C@@H]2C)C[C@H](O)[C@@H]1O [Digoxin, reference compound]
Caco-2 permeability
  Papp A→B: 0.53 ×10⁻⁶ cm/s
  Papp B→A: 10.4 ×10⁻⁶ cm/s
  efflux ratio: 19.6
Human MDR1
  Papp A→B: 0.13 ×10⁻⁶ cm/s
  Papp B→A: 8.83 ×10⁻⁶ cm/s
[1]
  efflux ratio: 68.8

## N=C(N)c1ccc(/N=N/Nc2ccc(C(=N)N)cc2)cc1 [Diminazene, Diminazine diaceturate]
T. b. brucei GVR35 [2]
  Cured/infected: 0/4
  Mean relapse time: 48.6 days

## Nc1nc(N)nc(Nc2ccc([As]3SCC(CO)S3)cc2)n1 (stereo not shown) [Melarsoprol, reference compound]
[3]
  IC50: 0.0015 µg/mL to 0.003 µg/mL and 4 nM to 6 nM
T. b. brucei GVR35 [4]; 10 mg/kg×5 days ip
  Cured/infected: 2/8
  Mean relapse time: >96.6 days
T. b. brucei GVR35 [4]; [8]
  Cured/infected: 4/5
  Mean relapse time: >180 days
T. b. brucei GVR35 [4]; five daily ip injections of 15 mg/kg
  cure: 100%
[5]
  IC50: 4 to 9 nM
[6]
  treatment-related mortality: ~5%
L-6 rat myoblast cells
  IC50: 1.3 µg/mL and 3.3 µM
T. b. gambiense 130R
  Cured/infected: 4/4
  Mean relapse time: >90 days

## Lucifer Yellow [reference compound]
Caco-2 cell monolayers
  Papp: 0.23 10-6 cm/s
[7]
  Papp: 0.12 10-6 cm/s
